Here are results for 24 compounds from EP4600243A2, “NOVEL BICYCLIC HETEROCYCLYL COMPOUNDS AND USE THEREOF” (Jeil Pharmaceutical Co., Ltd., priority 2022, dated 2024).

The assay concerns the target T1, protein-protein interaction between SOS1 and KRAS G12C (Homo sapiens, UniProt Q07889).
T1 construct: purchased Cisbio 64KRASG12PEG
T1 sequence (Q07889 1-1333): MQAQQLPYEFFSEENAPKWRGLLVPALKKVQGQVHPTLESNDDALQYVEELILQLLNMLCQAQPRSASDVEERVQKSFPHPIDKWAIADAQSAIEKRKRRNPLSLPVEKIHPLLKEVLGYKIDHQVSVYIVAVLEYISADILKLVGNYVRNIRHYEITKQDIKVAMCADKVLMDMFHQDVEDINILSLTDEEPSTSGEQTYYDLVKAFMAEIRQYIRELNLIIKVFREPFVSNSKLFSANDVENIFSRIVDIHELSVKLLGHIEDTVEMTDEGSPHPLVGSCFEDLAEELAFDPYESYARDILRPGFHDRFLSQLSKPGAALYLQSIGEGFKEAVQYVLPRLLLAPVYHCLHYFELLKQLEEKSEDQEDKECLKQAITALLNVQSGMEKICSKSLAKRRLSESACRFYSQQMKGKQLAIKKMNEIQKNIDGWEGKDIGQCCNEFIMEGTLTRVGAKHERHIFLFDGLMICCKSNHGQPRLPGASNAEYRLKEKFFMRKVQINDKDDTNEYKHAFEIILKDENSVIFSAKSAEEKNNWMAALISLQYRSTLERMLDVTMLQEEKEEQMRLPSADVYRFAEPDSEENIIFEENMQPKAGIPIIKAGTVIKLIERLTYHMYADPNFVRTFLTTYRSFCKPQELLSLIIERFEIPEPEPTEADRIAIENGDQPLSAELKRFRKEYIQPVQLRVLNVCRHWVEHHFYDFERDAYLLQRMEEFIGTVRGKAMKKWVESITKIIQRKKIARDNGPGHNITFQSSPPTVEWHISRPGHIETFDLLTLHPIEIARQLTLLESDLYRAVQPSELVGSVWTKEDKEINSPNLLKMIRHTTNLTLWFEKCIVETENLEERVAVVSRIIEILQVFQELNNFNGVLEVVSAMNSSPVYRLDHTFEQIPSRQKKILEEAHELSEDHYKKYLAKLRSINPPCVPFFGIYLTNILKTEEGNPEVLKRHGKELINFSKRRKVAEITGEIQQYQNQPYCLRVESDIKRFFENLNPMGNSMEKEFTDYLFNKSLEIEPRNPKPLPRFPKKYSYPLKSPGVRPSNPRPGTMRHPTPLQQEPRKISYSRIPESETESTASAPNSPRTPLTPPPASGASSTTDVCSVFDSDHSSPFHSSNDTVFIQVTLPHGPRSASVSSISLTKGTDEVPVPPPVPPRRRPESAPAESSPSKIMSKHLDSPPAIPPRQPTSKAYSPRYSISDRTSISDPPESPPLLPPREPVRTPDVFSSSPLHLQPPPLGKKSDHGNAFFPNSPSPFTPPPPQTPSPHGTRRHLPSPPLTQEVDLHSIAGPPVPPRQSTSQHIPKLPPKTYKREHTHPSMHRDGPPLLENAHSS
In words: KRAS::SOS1 HTRF binding analysis (KRAS G12C/SOS1 binding kit). Conditions: compound at 0.1 uM. The procedure:
1-1. KRAS::SOS1 HTRF binding analysis
An SOS1 inhibitory ability of the example compounds of the present invention was confirmed by identifying the effect of inhibiting a protein-protein interaction between SOS1 and KRAS G12C of the compounds according to examples of the present invention.
Specifically, a KRAS G12C/SOS1 binding kit (64KRASG12PEG, Cisbio, France) was purchased and used. 2 µℓ of Tag1-KRAS G12C and 2 µℓ of GTP were premixed and dispensed 4 µl each into a 384 well plate (6007290, PerkinElmer, USA). 2 µℓ of the compound and 4 µℓ of Tag2-SOS1 were placed and then 10 µℓ of premixed Anti-Tag1 XL665 antibody and Anti-Tag2 Tb cryptate antibody was dispensed to each well. The plates were sealed and allowed to react at room temperature for one hour and 40 minutes, and then 665 nm wavelength and 620 nm wavelength were measured using a HTRF® compatible reader (Synergy H4, BioTeK, USA), and the ratio of receptor and donor emission signals for each well was calculated as 665 nm/620 nm×10^4.
(+++: more than 70 to 100% inhibition, ++: more than 40 to 70% inhibition, +: 0 to 40% inhibition) [Table 4]
For orientation: Time-resolved FRET reads energy transfer from a long-lived donor to a nearby acceptor.
Consider `CC(=O)N1CC=C(c2ccc3nncc(N[C@H](C)c4cccc(C(F)F)c4F)c3c2)CC1` [Example 1, (R)-1-(4-(4-(1-(3-(difluoromethyl)-2-fluorophenyl)ethylamino)cinnolin-6-yl)-5,6-dihydropyridin-1(2H)-yl)ethanone], for which the inhibition at 0.1 µM lay in the range of 0 to 40%.

Turning to `C[C@@H](Nc1cnnc2ccc(C3=CCN(C)CC3)cc12)c1cccc(C(F)F)c1F` [Example 3, (R)-N-(1-(3-(difluoromethyl)-2-fluorophenyl)ethyl)-6-(1-methyl-1,2,3,6-tetrahydropyridin-4-yl)cinnolin-4-amine], the inhibition at 0.1 µM lay within 70 to 100%.

For `C[C@@H](Nc1cnnc2ccc(C3=CCOCC3)cc12)c1cccc(C(F)F)c1F` [Example 4, (R)-N-(1-(3-(difluoromethyl)-2-fluorophenyl)ethyl)-6-(3,6-dihydro-2H-pyran-4-yl)cinnolin-4-amine], the inhibition at 0.1 µM lay within 0 to 40%.

For the compound `C[C@@H](Nc1cnnc2ccc(N3CCC(N(C)C)CC3)cc12)c1cccc(C(F)F)c1F` [Example 6, (R)-N-(1-(3-(difluoromethyl)-2-fluorophenyl)ethyl)-6-(4-(dimethylamino)piperidin-1-yl)cinnolin-4-amine], the inhibition at 0.1 µM was 40 to 70%.

As to `C[C@@H](Nc1cnnc2ccc(N3CC4(CN(C)C4)C3)cc12)c1cccc(C(F)F)c1F` [Example 7, (R)-N-(1-(3-(difluoromethyl)-2-fluorophenyl)ethyl)-6-(6-methyl-2,6-diazaspiro[3.3]heptan-2-yl)cinnolin-4-amine], the inhibition at 0.1 µM fell in the range of 70 to 100%.

Take `C[C@@H](Nc1cnnc2ccc(N3CCN(C4COC4)CC3)cc12)c1cccc(C(F)F)c1F` [Example 8, (R)-N-(1-(3-(difluoromethyl)-2-fluorophenyl)ethyl)-6-(4-(oxetan-3-yl)piperazin-1-yl)cinnolin-4-amine]: the inhibition at 0.1 µM was in the range of 0 to 40%.

Turning to `C[C@@H](Nc1cnnc2ccc(N3CCN4CCOC[C@@H]4C3)cc12)c1cccc(C(F)F)c1F` [Example 9, N-((R)-1-(3-(difluoromethyl)-2-fluorophenyl)ethyl)-6-((S)-hexahydropyrazino[2,1-c][1,4]oxazin-8(1H)-yl)cinnolin-4-amine], the inhibition at 0.1 µM lay in the range of 40 to 70%.

In the case of `C[C@@H](Nc1cnnc2ccc(N3CCOCC3)cc12)c1cccc(C(F)F)c1F` [Example 10, (R)-N-(1-(3-(difluoromethyl)-2-fluorophenyl)ethyl)-6-morpholinocinnolin-4-amine], the inhibition at 0.1 µM lay within 0 to 40%.

As to `C[C@@H](Nc1cnnc2ccc(N3CC4(COC4)C3)cc12)c1cccc(C(F)F)c1F` [Example 11, (R)-N-(1-(3-(difluoromethyl)-2-fluorophenyl)ethyl)-6-(2-oxa-6-azaspiro[3.3]heptan-6-yl)cinnolin-4-amine], the inhibition at 0.1 µM lay within 0 to 40%.

With `C[C@@H](Nc1cnnc2ccc(N3CC4CC(C3)O4)cc12)c1cccc(C(F)F)c1F` [Example 12, 6-(6-oxa-3-azabicyclo[3.1.1]heptan-3-yl)-N-((R)-1-(3-(difluoromethyl)-2-fluorophenyl)ethyl)cinnolin-4-amine], the inhibition at 0.1 µM lay within 40 to 70%.

Consider `C[C@@H](Nc1cnnc2ccc(N3C[C@H]4C[C@@H]3CO4)cc12)c1cccc(C(F)F)c1F` [Example 13, 6-((1R,4R)-2-oxa-5-azabicyclo[2.2.1]heptan-5-yl)-N-((R)-1-(3-(difluoromethyl)-2-fluorophenyl)ethyl)cinnolin-4-amine], for which the inhibition at 0.1 µM is 40 to 70%.

Consider `C[C@@H](Nc1cnnc2ccc(N3C[C@@H]4C[C@H]3CO4)cc12)c1cccc(C(F)F)c1F` [Example 14, 6-((1S,4S)-2-oxa-5-azabicyclo[2.2.1]heptan-5-yl)-N-((R)-1-(3-(difluoromethyl)-2-fluorophenyl)ethyl)cinnolin-4-amine], for which the inhibition at 0.1 µM lay within 0 to 40%.

In the case of `C[C@@H](Nc1cnnc2ccc(N3C4CCC3COC4)cc12)c1cccc(C(F)F)c1F` [Example 15, 6-(3-oxa-8-azabicyclo[3.2.1]octan-8-yl)-N-((R)-1-(3-(difluoromethyl)-2-fluorophenyl)ethyl)cinnolin-4-amine], the inhibition at 0.1 µM lay in the range of 0 to 40%.

Turning to `C[C@@H](Nc1cnnc2ccc(N3CC4CCC(C3)O4)cc12)c1cccc(C(F)F)c1F` [Example 16, 6-(8-oxa-3-azabicyclo[3.2.1]octan-3-yl)-N-((R)-1-(3-(difluoromethyl)-2-fluorophenyl)ethyl)cinnolin-4-amine], the inhibition at 0.1 µM lay in the range of 0 to 40%.

For the compound `C[C@@H](Nc1cnnc2ccc(N3CCSCC3)cc12)c1cccc(C(F)F)c1F` [Example 17, (R)-N-(1-(3-(difluoromethyl)-2-fluorophenyl)ethyl)-6-thiomorpholinocinnolin-4-amine], the inhibition at 0.1 µM lay within 0 to 40%.

As to `C[C@@H](Nc1cnnc2ccc(N3CCC(O)CC3)cc12)c1cccc(C(F)F)c1F` [Example 18, (R)-1-(4-((1-(3-(difluoromethyl)-2-fluorophenyl)ethyl)amino)cinnolin-6-yl)piperidin-4-ol], the inhibition at 0.1 µM was 70 to 100%.

Take `C[C@@H](Nc1cnnc2ccc(N3CCC(C)(O)CC3)cc12)c1cccc(C(F)F)c1F` [Example 19, (R)-1-(4-((1-(3-(difluoromethyl)-2-fluorophenyl)ethyl)amino)cinnolin-6-yl)-4-methylpiperidin-4-ol]: the inhibition at 0.1 µM is 40 to 70%.

`C[C@@H](Nc1cnnc2ccc(N3CCC[C@@H](O)C3)cc12)c1cccc(C(F)F)c1F` [Example 20, (R)-1-(4-(((R)-1-(3-(difluoromethyl)-2-fluorophenyl)ethyl)amino)cinnolin-6-yl)piperidin-3-ol]: the inhibition at 0.1 µM was 0 to 40%.

With `C[C@@H](Nc1cnnc2ccc(N3CCC[C@H](O)C3)cc12)c1cccc(C(F)F)c1F` [Example 21, (S)-1-(4-(((R)-1-(3-(difluoromethyl)-2-fluorophenyl)ethyl)amino)cinnolin-6-yl)piperidin-3-ol], the inhibition at 0.1 µM is 40 to 70%.

On to `COC1CCN(c2ccc3nncc(N[C@H](C)c4cccc(C(F)F)c4F)c3c2)CC1` [Example 22, (R)-N-(1-(3-(difluoromethyl)-2-fluorophenyl)ethyl)-6-(4-methoxypiperidin-1-yl)cinnolin-4-amine], for which the inhibition at 0.1 µM lay in the range of 0 to 40%.

For `CO[C@@H]1CCCN(c2ccc3nncc(N[C@H](C)c4cccc(C(F)F)c4F)c3c2)C1` [Example 23, N-((R)-1-(3-(difluoromethyl)-2-fluorophenyl)ethyl)-6-((R)-3-methoxypiperidin-1-yl)cinnolin-4-amine], the inhibition at 0.1 µM was 0 to 40%.

`CO[C@H]1CCCN(c2ccc3nncc(N[C@H](C)c4cccc(C(F)F)c4F)c3c2)C1` [Example 24, N-((R)-1-(3-(difluoromethyl)-2-fluorophenyl)ethyl)-6-((S)-3-methoxypiperidin-1-yl)cinnolin-4-amine]: the inhibition at 0.1 µM lay in the range of 0 to 40%.

In the case of `C[C@@H](Nc1cnnc2ccc(N3CC[C@@H](F)C3)cc12)c1cccc(C(F)F)c1F` [Example 25, N-((R)-1-(3-(difluoromethyl)-2-fluorophenyl)ethyl)-6-((R)-3-fluoropyrrolidin-1-yl)cinnolin-4-amine], the inhibition at 0.1 µM was in the range of 0 to 40%.

Take `C[C@@H](Nc1cnnc2ccc(N3CC[C@H](F)C3)cc12)c1cccc(C(F)F)c1F` [Example 26, N-((R)-1-(3-(difluoromethyl)-2-fluorophenyl)ethyl)-6-((S)-3-fluoropyrrolidin-1-yl)cinnolin-4-amine]: the inhibition at 0.1 µM lay within 0 to 40%.

As a reminder, the inhibition is the change of the read-out against control, counted positive when it falls.
